Reference: patent US20040229791A1, “Compositions and methods of modulating TGF-beta activity by fatty acids” (priority 2002, published 2004)

Biological target: T1, TGF-β1-α2M* complex (Homo sapiens, UniProt P01023)
T1 construct: was purified from pooled citrate-treate human plasma; from tissue; host or cells: pooled citrate-treated human plasma
T1 sequence (P01023 24-1474): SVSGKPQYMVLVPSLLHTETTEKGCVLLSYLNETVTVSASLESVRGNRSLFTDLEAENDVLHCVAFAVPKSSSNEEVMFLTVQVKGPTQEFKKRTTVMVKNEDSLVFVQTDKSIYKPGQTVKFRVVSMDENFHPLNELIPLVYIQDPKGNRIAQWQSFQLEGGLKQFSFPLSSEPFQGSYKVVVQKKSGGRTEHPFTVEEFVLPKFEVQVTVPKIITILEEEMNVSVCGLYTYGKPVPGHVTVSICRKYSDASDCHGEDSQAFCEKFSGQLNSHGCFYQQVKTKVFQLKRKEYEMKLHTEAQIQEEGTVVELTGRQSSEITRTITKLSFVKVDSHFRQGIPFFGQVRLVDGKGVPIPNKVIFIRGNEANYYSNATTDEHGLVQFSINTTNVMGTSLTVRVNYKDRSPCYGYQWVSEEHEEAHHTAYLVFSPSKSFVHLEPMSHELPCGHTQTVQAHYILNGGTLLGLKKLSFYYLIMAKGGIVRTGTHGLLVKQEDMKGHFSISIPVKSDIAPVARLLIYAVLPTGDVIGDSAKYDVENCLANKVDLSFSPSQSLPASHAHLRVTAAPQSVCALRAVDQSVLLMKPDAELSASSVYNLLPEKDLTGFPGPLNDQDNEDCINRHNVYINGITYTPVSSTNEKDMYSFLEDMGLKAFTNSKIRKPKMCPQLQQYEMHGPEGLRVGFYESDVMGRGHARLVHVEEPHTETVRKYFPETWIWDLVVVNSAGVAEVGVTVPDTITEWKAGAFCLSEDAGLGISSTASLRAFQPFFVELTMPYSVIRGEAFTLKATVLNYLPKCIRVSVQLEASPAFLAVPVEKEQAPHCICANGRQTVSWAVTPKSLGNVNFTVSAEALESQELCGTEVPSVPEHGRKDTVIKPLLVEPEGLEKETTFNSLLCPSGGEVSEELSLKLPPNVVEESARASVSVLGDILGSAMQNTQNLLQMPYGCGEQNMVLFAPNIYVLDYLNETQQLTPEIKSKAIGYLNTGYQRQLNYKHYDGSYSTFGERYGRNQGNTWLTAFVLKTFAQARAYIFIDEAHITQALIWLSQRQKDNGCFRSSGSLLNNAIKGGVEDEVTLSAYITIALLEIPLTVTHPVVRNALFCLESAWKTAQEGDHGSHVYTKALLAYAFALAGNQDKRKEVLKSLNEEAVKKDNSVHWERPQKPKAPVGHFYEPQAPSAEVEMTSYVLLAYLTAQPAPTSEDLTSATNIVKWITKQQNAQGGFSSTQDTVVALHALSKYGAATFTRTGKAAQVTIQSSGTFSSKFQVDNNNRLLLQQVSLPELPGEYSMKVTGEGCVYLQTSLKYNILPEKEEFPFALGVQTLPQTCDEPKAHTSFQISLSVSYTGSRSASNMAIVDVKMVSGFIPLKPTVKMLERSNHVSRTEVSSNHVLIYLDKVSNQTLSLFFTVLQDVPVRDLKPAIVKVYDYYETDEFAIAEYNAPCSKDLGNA
Experiment: Inhibition of 125I-TGF-β1 and α2M* complex formation (5% non-denaturing PAGE, autoradiography)
Assay type: binding
Description: Saturated and unsaturated fatty acids are present in plasma and tissues (25,26). The effects of various concentrations of saturated fatty acids on the formation of complexes between ^125I-TGF ? β1 and ? 2M* were examined. ^125I-TGF- ? 1 (1 nM) was incubated μg/ml) in the presence of various concentrations of n-caprylic acid ([…]), lauric acid (12 carbon atoms), myristic acid (14 carbon atoms), palmitic acid (16 carbon atoms) and stearic acid (18 carbon atoms). After 30 min at room temperature, the reaction mixture was analyzed by 5% non-denaturing PAGE and autoradiography, a standard method form determining complex formation between TGF-β and α2M* (12). […] At 100 μM, it inhibited 20% of the complex formation between TGF ? β1 and α2M*. Esterification consistently abolished the inhibitory activities of the fatty acids.
Complex formation of ^125I-TGF-β and ? 2M*—The reaction mixture contained 10 μg of . α2M*, ˜1 nM of ^125I-TGF- ? 1, ^125I-TGF ? β2 or ^125I-TGF ? acids (dissolved in 100% ethanol) in 0.05 ml of 50 mM HEPES-NaOH buffer, pH 7.4. The final concentration of ethanol in the reaction mixture was 0.5%. These fatty acids and fatty acid derivatives were soluble under the experimental conditions. After 30 min at room temperature, the complex formation of ^125I-TGF- ? and. α2M* was determined by 5% non-denaturing polyacrylamide gel electrophoresis (PAGE) or by 7.5% SDS-PAGE following cross-linking by 0.6 mM DSS. After electrophoresis, the gel was stained with Coomassie blue and analyzed by autoradiography. The ^125I-TGF- ? - ? 2M* complex which co-migrated with free ? 2M* was quantified using a PhosphoImager (Fuji).

CCCCCCCC(=O)O [n-caprylic acid]
inhibitory activity on complex formation of 125I-TGF-β1 and α2M*: relatively weak inhibitor
inhibition of the complex formation between TGF-β1 and α2M* (at 100 μM): 20%
